According to US8207131B2, “Peptide” (Megmilk Snow Brand Co., Ltd., priority 2006, dated 2012):
No end group written: not given here.

Columns and labels:
[1] = antioxidative activity by linoleic acid-β-carotene degradation method; type: biochemical
Method: The antioxidative activity of the peptide fractionated in Example 1 was measured utilizing the β-carotene degradation effect of an oxide of linoleic acid. Specifically, a 300 ml Erlenmeyer flask was charged with 0.5 ml of a β-carotene solution (1 mg/ml chloroform), 0.2 ml of a linoleic acid solution (100 mg/ml chloroform), and 1.0 ml of a Tween 40 solution (200 mg/ml chloroform). After completely removing chloroform using nitrogen gas, 100 ml of distilled water was added to dissolve the components. 9.0 ml of a 0.2 M phosphate buffer (pH: 7.0) was then added to the solution to prepare a linoleic acid-β-carotene solution. 0.18 ml of the linoleic acid-β-carotene solution was added to a […] microwell plate to which 0.02 ml of the peptide fraction was provided. The absorbance S0 at 490 nm was measured immediately after the addition. When preparing the linoleic acid-β-carotene solution, the amount of the β-carotene solution was appropriately adjusted so that the absorbance S0 was about 1.2 (1.1 to 1.3). The microwell plate was placed in a thermostat bath at 50° C. immediately after measuring the absorbance S0, and the peptide fraction was incubated for 30 minutes. The absorbance S30 was measured immediately after incubation. A decrease (ΔS=S0−S30) in absorbance at 490 nm over 30 minutes was then calculated. 70% ethanol was used as a blank instead of the sample and subjected to the above operation. Specifically, the absorbance B0 immediately after adding the linoleic acid-β-carotene solution and the absorbance B30 after being kept at 50° C. for 30 minutes were measured, and a decrease (ΔB=B0−B30) in absorbance at 490 nm over 30 minutes was calculated. The antioxidative activity (antioxidation rate (%)) was determined by substituting the resulting values in the following expression. Antioxidation rate (%)=[ΔB−ΔS]/(ΔB)×100
As a positive control, carnosine (β-Ala-L-His; manufactured by Peptide Institute, Inc.) (muscle-derived antioxidative peptide) prepared to a concentration of 0.01 μg/ml, 0.1 μg/ml, or 1 μg/ml was used.
The antioxidative activity of the peptide obtained in Example 2 was measured in the same manner as in Test Example 1. As a positive control, carnosine (β-Ala-L-His; manufactured by Peptide Institute, Inc.) (muscle-derived antioxidative peptide) and catechin (manufactured by Wako Pure Chemical Industries, Ltd.) (1 μm, 10 μm, or 100 μm) were used. Table 2 and FIG. 3 show the evaluation results for the antioxidative activity of the synthetic peptide.
The antioxidative activities of the two peptides (i.e., tryptic digests) obtained in Examples 3 and the tryptic digest before fractionation were measured using a carotene degradation method in the same manner as in Test Example 2. The peptide concentration was determined by dissolving each peptide in 500 μl of pure water and measuring the peptide concentration using a Micro BCA Protein assay kit (manufactured by Pierce). As a positive control, carnosine (β-Ala-L-His; manufactured by Peptide Institute, Inc.) and catechin (manufactured by Wako Pure Chemical Industries, Ltd.) were used in the same manner as in Test Example 2. A diluted solution (1 ng/ml, 10 ng/ml, and 100 ng/ml) was prepared for each fragment, and the antioxidative activity was evaluated using the β-carotene degradation method.

[2] = system: rat primary-cultured visceral fat cells (VAC01); experiment: peptide adipocyte administration experiment; type: cell-based
Method: Experiments were conducted in which the peptide isolated from the cheese in Example 1 was administered to primary-cultured visceral fat cells.
The experiments were conducted using rat primary-cultured visceral fat cells (VAC01, manufactured by Cell Garage Co., Ltd.) and a visceral fat cytodifferentiation medium (manufactured by Cell Garage Co., Ltd.). Cells preserved in a frozen state in accordance with the protocol provided by Cell Garage Co., Ltd. were melted and disseminated in a 24-well plate (zeroth day). A culture medium (peptide concentration: 100 μM, 50 μM, 10 μM, or 0 μM) in which the synthetic peptide was dissolved was added to the 24-well plate on the second day, fifth day, and seventh day, and the synthetic peptide was cultured. The culture supernatant liquid was collected on the fifth day, seventh day, and eighth day to measure the adiponectin level. The cells were collected on the eighth day. The enzyme activity of glycerol-3-phosphate dehydrogenase (GPDH) in the cells, the DNA content of each well, and the intracellular fat accumulation level were measured. GPDH is an enzyme that functions when triglyceride is synthesized from glucose to produce mature fat cells. In this example, preadipocytes were differentiated, and the effect of administration of the peptide according to the present invention was observed.
The DNA content was determined using a DNA quantization kit (manufactured by Cell Garage Co., Ltd.).
The glycerol-3-phosphate dehydrogenase (GPDH) enzyme activity in the cells was measured using a GPDH activity measurement kit (manufactured by Cell Garage Co., Ltd.) in accordance with the protocol provided by Cell Garage Co., Ltd. The measurement results were standardized by the content of DNA extracted from each well.
The adiponectin level in the culture supernatant liquid was measured using an adiponectin ELISA kit (manufactured by Otsuka Pharmaceutical Co., Ltd.). The measurement results were standardized by the content of DNA extracted from each well.
The intracellular fat accumulation was determined by fat staining with oil red O and absorbance measurement using a fat staining kit (manufactured by Cell Garage Co., Ltd.).

[3] = sample concentration 0.01 μg/ml, Test Example 1
[4] = sample concentration 0.1 μg/ml, Test Example 1
[5] = sample concentration 1 μg/ml, Test Example 1
[6] = sample concentration 1 μg/ml, Test Example 2
[7] = sample concentration 10 μg/ml, Test Example 2
[8] = sample concentration 100 μg/ml, Test Example 2
[9] = Test Example 3, tryptic digest peptides, 1, 10, 100 ng/ml, FIG. 5

Row | Compound | Antioxidative activity (%) [1, 3] | Antioxidative activity (%) [1, 4] | Antioxidative activity (%) [1, 5] | Antioxidative activity (%) [1, 6] | Antioxidative activity (%) [1, 7] | Antioxidative activity (%) [1, 8] | antioxidative activity (in words) [1, 9] | other results
1 | NCCC(=O)N[C@@H](Cc1cnc[nH]1)C(=O)O [Carnosine, β-Ala-L-His, reference compound] | 32.9% | 57.8% | 78.3% | 7.07% | 21.2% | 48.41% | – | –
2 | HPIKHQGLPQ | 13.0% | 41.0% | 64.6% | 32.86% | 61.13% | 63.6% | – | antioxidative activity (in words) ([1]; Test Example 1, peptide purified from Gouda cheese): had antioxidative activity (radical scavenger activity); antioxidative activity (in words) ([1]; Test Example 2, synthetic peptide, FIG. 3): strong antioxidative activity; production of adiponectin (per unit DNA content) vs cells without peptide ([2]; culture supernatant, seventh day, 10, 50, 100 μM, FIG. 6): significantly more adiponectin; cell DNA content of each well vs group without peptide ([2]; eighth day, Student t-test): a significant difference in cell DNA content was not observed; fat accumulation (oil red O staining) vs cells without peptide ([2]; eighth day, Student t-test, FIG. 7): a significant difference in fat accumulation was not observed; GPDH activity (per unit DNA content) vs group without peptide ([2]; peptide 100 μM, eighth day): A significant difference was not observed; fat accumulation (oil red O staining) ([2]; peptide 100 μM, eighth day): decreased to only a small extent; GPDH activity (per unit DNA content) vs group without peptide ([2]; peptide 10 or 50 μM, eighth day): significantly higher
3 | HQGLPQ | – | – | – | – | – | – | strong antioxidative activity | –
4 | His-Pro-Ile-Lys (HPIK; Bovine) | – | – | – | – | – | – | strong antioxidative activity | –
5 | catechin [reference compound] | – | – | – | 52.65% | 84.45% | 97.17% | – | –
